Source: US12215111B2, “Imidazopyridazine IL-17 inhibitor compounds” (Janssen Pharmaceutica NV, priority 2021, dated 2025)

test system: IL-17A-induced G-CSF production in human normal keratinocyte (NHK); experiment: NHK assay: IL-17A-induced G-CSF production in normal human keratinocytes; assay type: cell-based; conditions: Homo sapiens, Keratinocyte; IL-17A 5 ng/mL, 24 h at 37° C., G-CSF by HTRF; simple average if tested more than once
Procedure: IL-17A acts directly on keratinocytes through binding to dimeric receptor IL-17RA/RC and drives the production of a number of inflammatory mediators known to be elevated in psoriasis lesional tissue. IL-17A small molecule inhibitors that block the IL-17A to interact with IL-17R would inhibit the IL-17A signaling in its targeted cells such as keratinocytes. The compound functional activity is evaluated for its impact on IL-17A-induced G-CSF production in human normal keratinocyte (NHK).
Adult normal human keratinocytes are cultured in keratinocyte growth medium (Lonza) in a flask till reaching ˜90% confluence, then cells are transferred to a 384-well plate at density of 3000-4000 cell/well. Recombinant human IL-17A (Gibco PHC9174) is pre-incubated with titrated compound or DMSO for 1 h at rt then added to the cell culture plate. The final concentration of IL-17A is 5 ng/mL and DMSO is 0.2%, in the culture containing 5% FBS. Cells are cultured/treated for 24 h at 37° C. Supernatants are collected and G-CSF production is measured through HTRF technology using Human G-CSF Kit (CisBio). G-CSF concentration was extrapolated from the standard curve and IC50 is determined using GraphPad Prism. Cell viability is also evaluated using CellTiter-Glo kit (Promega) and effect of compound on cell viability is compared to DMSO control.

Structure (SMILES) | IC50 [µM]
Cc1nonc1C(=O)N[C@H](c1cn2ncc(CN3C[C@@](C)(C(F)(F)F)NC3=O)cc2n1)C1CCC(F)(F)CC1 [Example 28, N—((S)—(4,4-Difluorocyclohexyl)(7-(((S)-4-methyl-2-oxo-4-(trifluoromethyl)imidazolidin-1-yl)methyl)imidazo[1,2-b]pyridazin-2-yl)methyl)-4-methyl-1,2,5-oxadiazole-3-carboxamide] | < 4
Cc1nonc1C(=O)N[C@H](c1cn2ncc([C@H](N3C[C@@H](C(F)(F)F)NC3=O)C3(C#N)CCC3)cc2n1)C1CCC(F)(F)CC1 [Example 22, N—((S)-(7-((S)—(1-Cyanocyclobutyl)((S)-2-oxo-4-(trifluoromethyl)imidazolidin-1-yl)methyl)imidazo[1,2-b]pyridazin-2-yl)(4,4-difluorocyclohexyl)methyl)-4-methyl-1,2,5-oxadiazole-3-carboxamide] | < 4
Cc1nonc1C(=O)N[C@H](c1cn2ncc([C@@H](C3CC3)N3CC4(CC4)NC3=O)cc2n1)C1CCC(F)(F)CC1 [Example 21, N—[(S)—[7-[(R)-Cyclopropyl-(6-oxo-5,7-diazaspiro[2.4]heptan-5-yl)methyl]imidazo[1,2-b]pyridazin-2-yl]-(4,4-difluorocyclohexyl)methyl]-4-methyl-1,2,5-oxadiazole-3-carboxamide] | < 4
C[C@@H]1CN(Cc2cnn3cc([C@@H](NC(=O)c4nonc4C4CC4)C4CCC(F)(F)CC4)nc3c2)C(=O)N1 [Example 6, 4-Cyclopropyl-N—((S)—(4,4-difluorocyclohexyl)(7-(((R)-4-methyl-2-oxoimidazolidin-1-yl)methyl)imidazo[1,2-b]pyridazin-2-yl)methyl)-1,2,5-oxadiazole-3-carboxamide] | < 4
[2H]C1([2H])N([C@H](COC)c2cnn3cc([C@H](COC(C)(C)C(F)(F)F)NC(=O)c4nonc4C)nc3c2)C(=O)NC1([2H])C(F)(F)F (stereo in doubt) [Example 35, N—((R)-1-(7-((S)-2-Methoxy-1-((R)-2-oxo-4-(trifluoromethyl)imidazolidin-1-yl-4,5,5-d3)ethyl)imidazo[1,2-b]pyridazin-2-yl)-2-((1,1,1-trifluoro-2-methylpropan-2-yl)oxy)ethyl)-4-methyl-1,2,5-oxadiazole-3-carboxamide] | < 4
CC(C)n1nccc1C(=O)N[C@H](c1cn2ncc(CN3CCNC3=O)cc2n1)C1CCC(F)(F)CC1 [Example 3, (S)—N-((4,4-Difluorocyclohexyl)(7-((2-oxoimidazolidin-1-yl)methyl)imidazo[1,2-b]pyridazin-2-yl)methyl)-1-isopropyl-1H-pyrazole-5-carboxamide] | < 4
COC[C@H](c1cnn2cc([C@H](COC(C)(C)C(F)(F)F)NC(=O)c3nonc3C)nc2c1)N1C[C@@](C)(C(F)(F)F)NC1=O (single isomer, unassigned) [Example 30] | < 4
[2H]C1([2H])[C@@H](C(F)(F)F)NC(=O)N1[C@H](COC)c1cnn2cc([C@H](COC(C)(C)C(F)(F)F)NC(=O)c3nonc3C3CC3)nc2c1 (relative stereo) [Example 16, 4-Cyclopropyl-N—((R)-1-(7-((S)-2-methoxy-1-((S*)-2-oxo-4-(trifluoromethyl)imidazolidin-1-yl-5,5-d2)ethyl)imidazo[1,2-b]pyridazin-2-yl)-2-(1,1,1-trifluoro-2-methylpropan-2-yl)oxy)ethyl)-1,2,5-oxadiazole-3-carboxamide] | < 4
CC(C)(OC[C@H](NC(=O)c1nonc1C1CC1)c1cn2ncc(CN3C[C@@H](C(F)(F)F)NC3=O)cc2n1)C(F)(F)F [Example 24] | < 4
[2H]C1([2H])N([C@H](COC)c2cnn3cc([C@H](COC(C)(C)C(F)(F)F)NC(=O)c4nonc4C4CC4)nc3c2)C(=O)NC1([2H])C(F)(F)F (stereo in doubt) [Example 34, 4-Cyclopropyl-N—((R)-1-(7-((S)-2-methoxy-1-((R)-2-oxo-4-(trifluoromethyl)imidazolidin-1-yl-4,5,5-d3)ethyl)imidazo[1,2-b]pyridazin-2-yl)-2-((1,1,1-trifluoro-2-methylpropan-2-yl)oxy)ethyl)-1,2,5-oxadiazole-3-carboxamide] | < 4
COC[C@H](c1cnn2cc([C@H](CC(C)(C)C(F)(F)F)NC(=O)c3nonc3C3CC3)nc2c1)N1C[C@@H](C(F)(F)F)NC1=O [Example 13, 4-Cyclopropyl-N—((S)-4,4,4-trifluoro-1-(7-((S)-2-methoxy-1-((S)-2-oxo-4-(trifluoromethyl)imidazolidin-1-yl)ethyl)imidazo[1,2-b]pyridazin-2-yl)-3,3-dimethylbutyl)-1,2,5-oxadiazole-3-carboxamide] | < 4
CC(C)n1nccc1C(=O)N[C@H](c1cn2ncc([C@H](COC3CC3)N3C[C@@H](C(F)(F)F)NC3=O)cc2n1)C1CCC(F)(F)CC1 (single isomer, unassigned) [Example 44] | < 4
COC[C@H](c1cnn2cc([C@H](COC(C)(C)C(F)(F)F)NC(=O)[C@@H]3C[C@H]3C(F)(F)F)nc2c1)N1C[C@@H](C(F)(F)F)NC1=O (relative stereo) [Example 32, (1R*,2R*)—N—((R)-1-(7-((S)-2-Methoxy-((S)-2-oxo-4-(trifluoromethyl)imidazolidin-1-yl)ethyl)imidazo[1,2-b]pyridazin-2-yl)-2-(1,1,1-trifluoro-2-methylpropan-2-yl)oxy)ethyl)-2-(trifluoromethyl)cyclopropane-1-carboxamide] | < 4
COC[C@H](c1cnn2cc([C@H](CC(C)(C)C(F)(F)F)NC(=O)c3ccnn3C(C)C)nc2c1)N1C[C@@H](C(F)(F)F)NC1=O [Example 15, 1-Isopropyl-N—((S)-4,4,4-trifluoro-1-(7-((S)-2-methoxy-((S)-2-oxo-4-(trifluoromethyl)imidazolidin-1-yl)ethyl)imidazo[1,2-b]pyridazin-2-yl)-3,3-dimethylbutyl)-1H-pyrazole-5-carboxamide] | < 4
COC[C@H](c1cnn2cc([C@H](CC(C)(C)C(F)(F)F)NC(=O)c3nonc3C)nc2c1)N1C[C@@H](C(F)(F)F)NC1=O [Example 14, 4-Methyl-N—((S)-4,4,4-trifluoro-1-(7-((S)-2-methoxy-1-((S)-2-oxo-4-(trifluoromethyl)imidazolidin-1-yl)ethyl)imidazo[1,2-b]pyridazin-2-yl)-3,3-dimethylbutyl)-1,2,5-oxadiazole-3-carboxamide] | < 4
C[C@@]1(C(F)(F)F)CN(Cc2cnn3cc([C@@H](NC(=O)c4nonc4C4CC4)C4CCC(F)(F)CC4)nc3c2)C(=O)N1 [Example 29] | < 4
Cc1nonc1C(=O)N[C@@H](CCC(C)(C)C(F)(F)F)c1cn2ncc([C@@H](COC3CC3)N3C[C@@H](C(F)(F)F)NC3=O)cc2n1 [Example 38, N—((S)-1-(7-((S)-2-Cyclopropoxy-((S)-2-oxo-4-(trifluoromethyl)imidazolidin-1-yl)ethyl)imidazo[1,2-b]pyridazin-2-yl)-5,5,5-trifluoro-4,4-dimethylpentyl)-4-methyl-1,2,5-oxadiazole-3-carboxamide] | < 4
CC(C)(CC[C@H](NC(=O)c1nonc1C1CC1)c1cn2ncc([C@@H](COC3CC3)N3C[C@@H](C(F)(F)F)NC3=O)cc2n1)C(F)(F)F [Example 39, N—((S)-1-(7-((S)-2-Cyclopropoxy-((S)-2-oxo-4-(trifluoromethyl)imidazolidin-1-yl)ethyl)imidazo[1,2-b]pyridazin-2-yl)-5,5,5-trifluoro-4,4-dimethylpentyl)-4-cyclopropyl-1,2,5-oxadiazole-3-carboxamide] | < 4

target: IL-17A(FLAG-Tagged): IL-17RA(His-Tagged) (Homo sapiens, UniProt Q16552, K93Q); experiment: IL-17A(FLAG-tagged):IL-17RA(His-tagged) binding disruption Eu-HTRF assay, Protocol 1; conditions: FLAG tagged IL-17A at 2× final concentration (2.5 nM); simple average if tested more than once
Sequence (Q16552 with tags, fused parts or gaps K93Q): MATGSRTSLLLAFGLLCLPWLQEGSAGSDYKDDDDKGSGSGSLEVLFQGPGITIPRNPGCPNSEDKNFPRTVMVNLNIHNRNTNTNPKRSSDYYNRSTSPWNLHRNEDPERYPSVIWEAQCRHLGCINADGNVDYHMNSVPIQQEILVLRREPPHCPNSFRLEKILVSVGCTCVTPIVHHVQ
Description: IL-17A(FLAG-Tagged): IL-17RA(His-Tagged) Binding Disruption Eu-HTRF Assay
An antibody directed against the FLAG tag of IL-17A (SEQ ID NO:1) is labeled with the HTRF donor chromophore (Europium-cryptate). IL-17A is present as a dimer that is “locked into” this quaternary structure due to the formation of loop-spanning […] disulfide bridges. The construct of IL-17RA used in the assay excludes the outer-membrane portion of the receptor and is fused to a C-terminal 10×His tag (SEQ ID NO:2). An antibody directed against the His tag of the IL-17RA chimera is labeled with the HTRF acceptor chromophore (“D2”). The fluorescence-resonance energy transfer (FRET) depends on the vicinity of the donor chromophore to the acceptor, and interruption of the binding between the IL-17A and IL-17RA causes the reduction/loss of FRET. Therefore, this assay allows to evaluate the compound effect on the binding IL-17A and IL-17RA by monitoring the fluorescence intensity of donor vs acceptor. The assay was run using either Protocol 1 or Protocol 2 described below.
Protocol 1: 40 nL of 2-fold serial diluted compound solution for total 22 dilution points is added into each well of a 1536-well, white, low-volume, non-binding plate (Greiner #782904), then 2 μl of FLAG tagged IL-17A at 2× final concentration (2.5 nM) in solution of PBS+0.01% Triton-X100 is added to each well. The assay plate is briefly centrifuged then incubated for 1 h at rt. A mixed solution is prepared containing 2×5 nM 10HIS×IL-17RA, 2×2.5 nM Eu-anti-FLAG (CISBIO), 2×5 nM D2-anti-HIS (CISBIO) in PBS+0.01% Triton-X100+200 mM Potassium Fluoride (Sigma 60238) and […] of mix is added to each well of the assay plate. The plate is briefly centrifuged then incubated for 2 h at rt. The HTRF intensities at the wavelength of donor (620 nm) and acceptor (665 nm) are measured using BMG Pherastar. The ratio between intensities at two wavelengths is calculated and plotted against the compound concentration and the data is fitted to a one-site competition model to yield IC50 of the compound.

IC50 [µM] | Structure (SMILES)
< 4 | Cc1nonc1C(=O)N[C@H](c1cn2ncc([C@H](N3C[C@@H](C(F)(F)F)NC3=O)C3(C#N)CCC3)cc2n1)C1CCC(F)(F)CC1 [Example 22, N—((S)-(7-((S)—(1-Cyanocyclobutyl)((S)-2-oxo-4-(trifluoromethyl)imidazolidin-1-yl)methyl)imidazo[1,2-b]pyridazin-2-yl)(4,4-difluorocyclohexyl)methyl)-4-methyl-1,2,5-oxadiazole-3-carboxamide]
< 4 | C[C@@H]1CN(Cc2cnn3cc([C@@H](NC(=O)c4nonc4C4CC4)C4CCC(F)(F)CC4)nc3c2)C(=O)N1 [Example 6, 4-Cyclopropyl-N—((S)—(4,4-difluorocyclohexyl)(7-(((R)-4-methyl-2-oxoimidazolidin-1-yl)methyl)imidazo[1,2-b]pyridazin-2-yl)methyl)-1,2,5-oxadiazole-3-carboxamide]
< 4 | CC(C)n1nccc1C(=O)N[C@H](c1cn2ncc(CN3CCNC3=O)cc2n1)C1CCC(F)(F)CC1 [Example 3, (S)—N-((4,4-Difluorocyclohexyl)(7-((2-oxoimidazolidin-1-yl)methyl)imidazo[1,2-b]pyridazin-2-yl)methyl)-1-isopropyl-1H-pyrazole-5-carboxamide]
